Measurements: patent publication US5473051A, “Inhibition of Mac-1 receptor binding to fibrinogen using D30 homologs” (The Scripps Research Institute, priority 1991, dated 1995)
Several values for one entry are separate records, joined by “and”; a condition that tells them apart may be missing. Identical values can stand only once. Entries after “also recorded” stand apart in the source; their conditions may differ.

How the values were obtained:
neutrophils or monocytes = assay: Cell attachment to polypeptide-coated wells; assay type: cell-based, human
Method: To determine the Mac-1 receptor-binding site on the gamma chain of D30, the synthetic polypeptides prepared above were separately evaluated in cell attachment assays. For these assays, wells of 96-well microtiter plates (Linbro/Titertek; Flow Laboratories, VA) were coated with 60 μl of a 1 mg/ml solution of individual synthetic polypeptides prepared above. The wells containing the dissolved polypeptides were maintained for 16 hours at 4° C. The wells were then washed twice with PBS and blocked for 30 minutes with 0.1% BSA in PBS. After a final wash, 100 μl of DMEM containing 1% fetal bovine serum and 2×10^5 cells/ml of either neutrophils or monocytes prepared respectively in Example 2B and Example 8D were admixed into each well. The cells were maintained for 30 minutes at room temperature to allow the cells to attach to the polypeptide-coated wells. Non-adherant cells were removed from the wells by washing twice with PBS. […]
Adherent cells were quantitated by staining with 0.5% crystal violet. […] The optical density (O.D.) at 550 nm was determined with an ELISA reader (Biotek Instruments). Non-specific adherence was determined by plating cells on BSA-coated wells for the appropriate period of time. Specific adhesion to a given polypeptide substrate was calculated by subtracting the O.D. obtained with cells plated on BSA from that observed for cells plated on individual polypeptides. […]

THP-1 cells = assay: Inhibition of THP-1 cell attachment to fibrinogen-coated wells; assay type: cell-based, human
Method: Cell attachment assays were performed to determine if the Plb polypeptide (SEQ ID NO 13) which was derived from the gamma chain of D30 from residue 195 to residue 201 would inhibit the binding of THP-1 cells to fibrinogen-coated plates as effectively as the larger polypeptide, P1 (SEQ ID NO 12). The assays were performed as described in Example 8C with the following modifications: the microtiter wells were coated with 10 μg/ml of fibrinogen overnight at room temperature to form fibrinogen-coated wells; the unoccupied sites on the wells were then blocked to prevent non-specific background with 3% gelatin for 30 minutes at room temperature; 2×10^5 THP-1 cells prepared as described in Example 8D2) were separately admixed with the polypeptides P1, […] and L10, the latter of which served as a control, ranging in concentration from 0.03 mg/ml to 1 mg/ml to form THP-1 cell-polypeptide admixtures; the resultant admixtures were maintained for 30 minutes at room temperature after which time the cells were admixed to the fibrinogen-coated plates as described in Example 8C.
The results of the inhibition of cell attachment assay are shown above in Table 2. The absorbance of crystal violet stain, indicating the relative number of cells that attached to the fibrinogen-coated wells, was measured at 600 nm. The absorbance values are tabulated in columns according to the concentration of each polypeptide separately tested in the assay. […] These six amino acid residues comprise the Mac-1 receptor binding site of fibrinogen.

Mac-1 receptor [1] = molecular target: T1, Mac-1 receptor (Homo sapiens, UniProt P05107+P11215); assay: Inhibition of 125I-P1 binding to THP-1 cells; set-up: Separate aliquots of the resuspended Mac-1 receptor-bearing neutrophils were stimulated with 10 μM of the chemotactic peptide; endogenous in cells; settings: one hour
Method: Similar binding assays and inhibition thereof were performed using the monocytic cell line THP-1 (ATCC TIB 202, Bethesda, Md.). THP-1 cells were maintained in RPMI 1640 supplemented with 10% fetal bovine serum (HyClone, Logan, UT), 20 mM Hepes, 100 μg/ml gentamycin, 2 mM L-glutamine and 10 μM beta-mercaptoethanol. The competitive inhibitors evaluated in the assay to compete for the binding of the labeled P1 polypeptide to THP-1 cells included the following:D30 prepared as described in Example 1; the irrelevant polypeptide L10 described above; the monoclonal antibody IB4 which recognizes the beta subunit of the Mac-1 receptor (Wright et al., Proc. Natl. Acad. Sci., USA, 80:5699-5703 (1983); the monoclonal antibody M1/70 which recognizes the alpha subunit of the Mac-1 receptor (Ho et al., J. Biol. Chem., 258:2766-2769 (1983); and a monoclonal antibody against tissue factor as described by Morrisey et al., Thromb. Res., 52:247-261 (1988 ).
The assays in which D30 or polypeptides derived therefrom were performed as described above and in Example 6. The assays in which antibodies were used as competitive inhibitors were performed as described in Example 2C using 50 μg/ml of each antibody. […] The amount of binding of radiolabelled P1 polypeptide to THP-1 cells was measured after a […] maintenance period in the absence or presence of unlabelled competitors. […]

Mac-1 receptor [2] = molecular target: T1, Mac-1 receptor; assay: Binding of 125I-P1 to monocytes and competition; set-up: Separate aliquots of the resuspended Mac-1 receptor-bearing neutrophils were stimulated with 10 μM of the chemotactic peptide; endogenous in cells; host or cells: neutrophils from blood of normal volunteers, stimulated with fMLP
Method: Anticoagulated blood was prepared as described in Example 2B. After resuspending the pelleted erythrocytes, mononuclear and polynuclear cells with a volume equal to the starting blood volume with chilled 0.14M PBS, 35 ml of the cell suspension were layered onto 15 ml of Ficoll-Hypaque (Pharmacia) in a 50 ml polypropylene tube and centrifuged at 400×g for 40 minutes at room temperature. The cells at the interface were carefully removed with sterile plastic pipettes and were then washed two times with excess 5 mM PBS-EDTA (ethylene diamine tetracetic acid). The washed cells were then centrifuged first at 400×g for 20 minutes at 4° C., the pellet was resuspended as above, then the suspension was centrifuged again at 120×g for 12 minutes at 4° C. The cell pellet was again resuspended to form a PMBC cell suspension. […]
Human monocytes were purified from the platelet-free PMBC cell suspension as described by Fischer et al., Academic Press, Inc., New York, pp: 43-47 (1981). […] The purity of the monocyte preparation was greater than 90% as assessed by alpha-naphthyl acetate esterase staining and the viability was greater than 95% as judged by trypan blue exclusion. […]
The specific cell-associated binding of radiolabelled P1 to monocytes was measured over 60 minutes at 10 minute intervals and was calculated as described in Example 6. […]

Mac-1 receptor [3] = molecular target: T1, Mac-1 receptor; assay: Inhibition of 125I-fibrinogen binding to THP-1 cells by polypeptide; set-up: Separate aliquots of the resuspended Mac-1 receptor-bearing neutrophils were stimulated with 10 μM of the chemotactic peptide; endogenous in cells; host or cells: neutrophils from blood of normal volunteers, stimulated with fMLP
Method: The specificity of the P1 polypeptide for the Mac-1 receptor on THP-1 cells was confirmed in assays where the binding of purified intact fibrinogen to THP-1 cells was inhibited by P1 but not by the irrelevant polypeptide, L10. The assays were performed as described in Example 6 with the exception that THP-1 cells prepared as described in Example 8D were used instead of neutrophils. The amount of polypeptide used in the assay ranged in concentration from 7 μg/ml up to 60 μg/ml.
The amount of radiolabelled fibrinogen bound to THP-1 cells was expressed as molecules/cell ×1000 and plotted on the ordinate against increasing polypeptide concentrations as shown in FIG. 7.

Mac-1 receptor [4] = molecular target: T1, Mac-1 receptor; assay: Competition of 125I-fibrinogen binding to stimulated neutrophils; set-up: Separate aliquots of the resuspended Mac-1 receptor-bearing neutrophils were stimulated with 10 μM of the chemotactic peptide; endogenous in cells; host or cells: neutrophils from blood of normal volunteers, stimulated with fMLP
Method: Fibrinogen was purified as described in Example 1 and radiolabelled as described for D30 in Example 2A. Mac-1 receptor-bearing neutrophils were prepared as described in 2B. Separate aliquots of stimulated neutrophils at a concentration of 1.5×10^7 cells/ml were simultaneously incubated with a predetermined subsaturating dose of ^125 I-labelled fibrinogen (50 μg/ml) and increasing concentrations of various competing proteins for 20 minutes at room temperature. The reaction in the admixture was terminated by centrifugation through silicon oils as described in Example 2. The amount of labelled Mac-1 receptor:fibrinogen complex was determined by gamma detection. Non-specific binding was calculated as described in Example 2 and subtracted from the total to calculate specific binding.
Unlabelled fibrinogen and fibrinogen fragments X, D:E and D obtained as described in Example 1A and B were evaluated for their ability to compete for labelled fibrinogen binding to stimulated neutrophils.
Fibrinogen fragments E and D30 obtained as described in Example 1B were evaluated for their ability to compete for labelled fibrinogen binding to stimulated neutrophils.

T1 sequence (P05107 23-769, other chains not shown): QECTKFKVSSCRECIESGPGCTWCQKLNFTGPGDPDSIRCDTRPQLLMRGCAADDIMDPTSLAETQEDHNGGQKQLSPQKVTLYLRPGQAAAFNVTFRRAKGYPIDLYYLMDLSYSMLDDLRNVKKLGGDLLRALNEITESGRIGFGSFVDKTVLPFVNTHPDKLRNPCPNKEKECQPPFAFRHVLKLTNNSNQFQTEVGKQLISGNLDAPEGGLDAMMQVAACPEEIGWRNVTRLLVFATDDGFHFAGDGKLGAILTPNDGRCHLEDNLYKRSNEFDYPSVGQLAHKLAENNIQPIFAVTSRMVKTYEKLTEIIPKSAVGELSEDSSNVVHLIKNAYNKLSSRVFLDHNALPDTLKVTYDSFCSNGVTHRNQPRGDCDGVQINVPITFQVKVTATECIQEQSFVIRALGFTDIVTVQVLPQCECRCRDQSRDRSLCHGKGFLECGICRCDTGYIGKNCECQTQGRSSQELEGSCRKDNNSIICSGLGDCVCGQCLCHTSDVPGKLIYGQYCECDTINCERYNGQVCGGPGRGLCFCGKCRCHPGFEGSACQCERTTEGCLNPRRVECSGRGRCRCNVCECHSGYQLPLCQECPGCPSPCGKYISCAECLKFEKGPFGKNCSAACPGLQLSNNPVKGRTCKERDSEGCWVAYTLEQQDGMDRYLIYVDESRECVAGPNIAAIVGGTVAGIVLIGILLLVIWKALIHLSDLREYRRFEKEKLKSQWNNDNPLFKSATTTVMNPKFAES

Row | Substance | promotion of cell attachment (in words) (neutrophils or monocytes) | inhibition of THP-1 cell attachment to fibrinogen (in words) (THP-1 cells; 0.03 to 1 mg/ml polypeptide) | polypeptide concentration giving maximal inhibition of THP-1 binding to fibrinogen (THP-1 cells; 0.03 to 1 mg/ml tested) | Absorbance at 600 nm (THP-1 cells attached to fibrinogen) (THP-1 cells; polypeptide 0.03 mg/ml) | Absorbance at 600 nm (THP-1 cells attached to fibrinogen) (THP-1 cells; polypeptide 0.125 mg/ml) | Absorbance at 600 nm (THP-1 cells attached to fibrinogen) (THP-1 cells; polypeptide 0.5 mg/ml) | Absorbance at 600 nm (THP-1 cells attached to fibrinogen) (THP-1 cells; polypeptide 0.60 mg/ml) | Absorbance at 600 nm (THP-1 cells attached to fibrinogen) (THP-1 cells; polypeptide 1.0 mg/ml) | total specific binding of P1 to THP-1 cells in the absence of competitors (Mac-1 receptor [1]) | competition of 125I-P1 binding to monocytes (Mac-1 receptor [2]; 1 mg/ml cold polypeptide) | binding of radiolabelled P1 to monocytes (Mac-1 receptor [2]; one hour assay, 20,000 cpm 125I-P1) | inhibition of fibrinogen binding to THP-1 cells (in words) (Mac-1 receptor [3]; 7 to 60 μg/ml polypeptide) | polypeptide concentration giving maximal inhibition of fibrinogen binding to THP-1 cells (Mac-1 receptor [3]; 7 to 60 μg/ml tested) [µg/mL] | IC50 for inhibition of 125I-fibrinogen binding to stimulated neutrophils (Mac-1 receptor [4]; 50 μg/ml 125I-fibrinogen, 20 minutes at room temperature) [µg/mL] | competition of 125I-fibrinogen binding to stimulated neutrophils (in words) (Mac-1 receptor [4]; increasing concentrations of competitor) | 125I-fibrinogen specifically bound in the absence of competitors (Mac-1 receptor [4]; stimulated neutrophils, 50 μg/ml 125I-fibrinogen)
1 | KYGWTVFQKRLDGSV [P1, N-terminal lysine-tyrosine-glycine added] | promoting cells attachment | effective at inhibiting cell attachment at all concentrations | 0,125 mg/ml | 1.02 | 0.42 | 0.36 | 1.12 | 0.48 | approximately 16,000 cpm | competitively inhibited; also recorded: competed | binds to monocytes in a non-saturable curve | inhibited | 20 |  |  | 
2 | fibrinogen |  |  |  |  |  |  |  |  |  |  |  |  |  | 25 to 50 | compete | 80,200±8,000 molecules/cell and 99,600±4,500 molecules/cell
